In patent EP0406628A1, “Monoclonal antibody against endothelin, hybridoma capable of producing the same and radioimmunoassay for endothelin by using the same” (SHIONOGI & CO., LTD., priority 1989, dated 1991):
Bridge positions count the residues as written; N and C are the ends. Ends that are not written are not given here.

Test system: isolated rat aortic strips
Assay: Neutralization experiment: contractile response of isolated rat aortic strips to ET-1
Conditions: synthetic ET-1 alone
Protocol: Contractile responses of rat aortic strips were performed as previously reported (Toda, S., Nakajima, S., Miyazaki, M., Ueda, M.: Vasodilation induced by pinacidil in dogs _ comparison with hydralizine and nifedipine. J. Cardiovasc. Pharmacol. 1985;7:1118-1126). Aortic strips were incubated in an organ bath perfused at 37°C with balanced salt solution containing 139.7 mEq Na⁺, 5.4 mEq K⁺, 2.2 mEq Ca²⁺, 1.0 mEq Mg²⁺, 131.5 mEq Cl⁻ and 20 mEq HCO₃⁻. Purified monoclonal antibody (0.05 µg/ml - 5 µg/ml) was added 3 min before the ET-1 administration.

ET-1: endothelin-1, purchased from Peptide Institute Inc.; original form isolated from culture medium of porcine aortic endothelial cells (CSCSSLMDKECVYFCHLDIIW; disulfide 1-15, 3-11; ends not checked; UniProt P05305 53-73, looked up)
vasoconstriction: induced a vasoconstriction in isolated rat aortic strips in a dose-dependent manner
